Laboratory results: publication PMC6273138, “Inhibitory Effects of Aschantin on Cytochrome P450 and Uridine 5′-diphospho-glucuronosyltransferase Enzyme Activities in Human Liver Microsomes” (Molecules, 2016)
Read-outs that look alike come from different tables or passages of the source.

Legend:
Format in all cases: in vitro ADME
UGT1A4 = molecular target: T1, UGT1A4 (Homo sapiens, UniProt P22310); experiment: UGT1A4-catalyzed trifluoperazine N-glucuronidation inhibition in pooled human liver microsomes
T1 construct: using pooled human liver microsomes incubated with the cocktail of UGT substrates; tissue Corning Life Sciences 452161; host or cells: pooled human liver microsomes
T1 sequence (P22310 29-534): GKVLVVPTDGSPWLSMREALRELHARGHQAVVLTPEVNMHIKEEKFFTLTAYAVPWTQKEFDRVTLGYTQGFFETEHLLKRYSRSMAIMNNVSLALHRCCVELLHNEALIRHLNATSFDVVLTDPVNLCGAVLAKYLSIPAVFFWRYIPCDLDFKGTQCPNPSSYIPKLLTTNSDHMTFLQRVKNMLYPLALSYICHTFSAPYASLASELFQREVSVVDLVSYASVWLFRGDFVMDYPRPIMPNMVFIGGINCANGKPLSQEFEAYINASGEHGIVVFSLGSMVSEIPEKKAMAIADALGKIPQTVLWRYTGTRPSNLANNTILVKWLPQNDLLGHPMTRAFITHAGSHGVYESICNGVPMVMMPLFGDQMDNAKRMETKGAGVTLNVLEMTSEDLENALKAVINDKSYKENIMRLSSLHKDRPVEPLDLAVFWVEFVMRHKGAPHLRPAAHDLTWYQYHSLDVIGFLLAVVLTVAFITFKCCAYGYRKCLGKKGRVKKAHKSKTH
Method: (§1) The extents of aschantin on UGT1A1, UGT1A3, UGT1A4, UGT1A6, UGT1A9, and UGT2B7 were evaluated by LC-MS/MS, using pooled human liver microsomes incubated with the cocktail of UGT substrates. The method was modified from that of Joo et al..
(§2) The metabolites formed from the six UGT cocktail substrates were simultaneously measured using the LC-MS/MS method. […] The mass spectrometer was equipped with an ESI source and was operated in both positive and negative ion modes. […] Each metabolite was quantified via SRM in the negative ion (chenodeoxycholic acid 24-acyl-β-glucuronide, 567.2 > 391.0; mycophenolic acid glucuronide, 495.2 > 318.9; propofol glucuronide, 353.3 > 177.1) and positive ion (SN-38 glucuronide, 569.0 > 393.0; trifluoperazine glucuronide, 584.2 > 408.1; N-acetylserotonin-β-D-glucuronide, 395.2 > 219.0; naloxone 3-β-D-glucuronide, 504.0 > 310.0; meloxicam, 352.0 > 115.1) modes.

UGT1A1 = molecular target: T2, UGT1A1 (Homo sapiens, UniProt P22309); experiment: UGT1A1-catalyzed SN-38 glucuronidation inhibition in pooled human liver microsomes; settings: 0.5 µM SN-38, pooled human liver microsomes
T2 construct: using pooled human liver microsomes incubated with the cocktail of UGT substrates; tissue Corning Life Sciences 452161; host or cells: pooled human liver microsomes
T2 sequence (P22309 26-533): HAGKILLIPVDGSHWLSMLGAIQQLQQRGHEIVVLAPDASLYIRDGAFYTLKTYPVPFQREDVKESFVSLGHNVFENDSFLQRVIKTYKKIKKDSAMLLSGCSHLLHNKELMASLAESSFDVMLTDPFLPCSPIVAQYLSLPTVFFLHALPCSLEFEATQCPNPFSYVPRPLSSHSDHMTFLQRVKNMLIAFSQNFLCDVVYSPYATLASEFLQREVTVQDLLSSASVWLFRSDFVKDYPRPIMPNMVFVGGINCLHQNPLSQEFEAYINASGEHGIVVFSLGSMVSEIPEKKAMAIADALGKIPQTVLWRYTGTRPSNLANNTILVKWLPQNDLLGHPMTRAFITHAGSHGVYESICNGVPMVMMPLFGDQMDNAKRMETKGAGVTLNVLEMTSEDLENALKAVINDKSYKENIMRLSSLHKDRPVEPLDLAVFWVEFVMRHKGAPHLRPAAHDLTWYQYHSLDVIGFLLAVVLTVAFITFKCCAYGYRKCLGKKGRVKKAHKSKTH
Method: as §1, §2

UGT1A3 = molecular target: T3, UGT1A3 (Homo sapiens, UniProt P35503); experiment: UGT1A3-catalyzed chenodeoxycholic acid 24-acyl-glucuronidation inhibition in pooled human liver microsomes
T3 construct: using pooled human liver microsomes incubated with the cocktail of UGT substrates; tissue Corning Life Sciences 452161; host or cells: pooled human liver microsomes
T3 sequence (P35503 29-534): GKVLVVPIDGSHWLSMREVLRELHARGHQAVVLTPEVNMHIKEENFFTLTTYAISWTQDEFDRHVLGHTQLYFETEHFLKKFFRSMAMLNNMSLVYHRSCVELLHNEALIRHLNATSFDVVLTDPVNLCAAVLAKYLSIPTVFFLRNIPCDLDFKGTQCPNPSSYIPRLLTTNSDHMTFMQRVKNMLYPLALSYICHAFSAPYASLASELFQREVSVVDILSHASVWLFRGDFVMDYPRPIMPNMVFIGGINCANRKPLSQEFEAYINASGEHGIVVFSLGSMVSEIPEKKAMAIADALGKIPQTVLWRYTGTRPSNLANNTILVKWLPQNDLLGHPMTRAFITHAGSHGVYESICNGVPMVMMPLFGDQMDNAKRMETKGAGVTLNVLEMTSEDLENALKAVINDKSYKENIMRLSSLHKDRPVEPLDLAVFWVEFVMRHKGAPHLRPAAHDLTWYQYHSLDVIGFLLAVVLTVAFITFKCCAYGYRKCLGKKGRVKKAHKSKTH
Method: as §1, §2

CYP2B6 = molecular target: T4, CYP2B6 (Homo sapiens, UniProt P20813); experiment: CYP2B6-catalyzed bupropion hydroxylase inhibition in pooled human liver microsomes; settings: for IC50: CYP2B6 bupropion hydroxylase, 50 µM bupropion
T4 construct: tissue Corning Life Sciences 452161; host or cells: pooled human liver microsomes
T4 sequence (P20813 1-491): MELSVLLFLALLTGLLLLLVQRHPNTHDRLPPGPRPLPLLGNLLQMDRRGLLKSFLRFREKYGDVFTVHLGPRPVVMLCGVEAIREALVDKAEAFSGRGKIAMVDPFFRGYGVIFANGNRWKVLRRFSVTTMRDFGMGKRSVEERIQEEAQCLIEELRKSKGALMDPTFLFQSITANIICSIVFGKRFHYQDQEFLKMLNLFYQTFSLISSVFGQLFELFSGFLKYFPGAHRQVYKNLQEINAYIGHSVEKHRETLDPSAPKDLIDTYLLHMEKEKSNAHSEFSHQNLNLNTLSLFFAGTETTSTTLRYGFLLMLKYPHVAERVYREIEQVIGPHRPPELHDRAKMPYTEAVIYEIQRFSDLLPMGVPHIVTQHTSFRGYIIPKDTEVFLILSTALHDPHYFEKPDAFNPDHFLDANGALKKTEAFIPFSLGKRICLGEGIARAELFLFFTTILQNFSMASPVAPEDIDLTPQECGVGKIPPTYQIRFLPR
Method: The effects of aschantin on CYP2B6-catalyzed bupropion hydroxylase activity were evaluated using LC-MS/MS with pooled human liver microsomes. […] The reaction was initiated by adding bupropion. Hydroxybupropion levels were determined using the LC-MS/MS method described above; the SRM parameters were 256.1 > 238.0 for hydroxybupropion and 287.2 > 187.0 for d9-1′-hydroxybufuralol.

[1] = aschantin at 200 µM, human liver microsomes

COc1cc([C@H]2OC[C@H]3[C@@H]2CO[C@@H]3c2ccc3c(c2)OCO3)cc(OC)c1OC [Aschantin]
IC50 (UGT1A4; UGT1A4-catalyzed trifluoperazine N-glucuronidation, 0.5 µM trifluoperazine, pooled human liver microsomes): > 200 µM
inhibition of UGT1A4-catalyzed trifluoperazine N-glucuronidation (UGT1A4; [1]): not inhibited
IC50 (UGT1A1): 132 µM
IC50 (UGT1A3; UGT1A3-catalyzed chenodeoxycholic acid 24-acyl-glucuronidation, 2 µM chenodeoxycholic acid, pooled human liver microsomes): > 200 µM
inhibition of UGT1A3-catalyzed chenodeoxycholic acid 24-acyl-glucuronidation (UGT1A3; [1]): not inhibited
IC50 (CYP2B6; 30 min pre-incubation with microsomes and NADPH, read-out: IC50 With Pre-incubation): 87.9 µM
IC50 (CYP2B6; pooled human liver microsomes, no pre-incubation, read-out: IC50 No Pre-incubation): > 100 µM
inhibition of CYP2B6-mediated bupropion hydroxylation (CYP2B6; aschantin at 100 µM, human liver microsomes): negligibly inhibited
